Test results from patent US11419869B2, “Dosage forms and regimens for amino acid compounds” (Pliant Therapeutics, Inc., priority 2019, dated 2022).

Key:
lung Col1a1 expression [1] = test: Precision cut lung slices, mice under chronic bleomycin exposure (Example B9); type: cell-based; details: 7 days culture, normalized to DMSO, FIG. 5B
Experimental: (§1) Mice (C57BL/6) were administered 3 U/kg of bleomycin (Teva Pharmaceuticals; North Wales, Pa.) on Day 0 and 1 U/kg of bleomycin on days 14, 28, 42 and 56 via oropharyngeal aspiration while under anesthesia. At day 70, 14 days after the final bleomycin insult, precision cut lung slices were obtained. Following euthanization, 2% low gelling temp agarose was injected into the mouse lungs via the trachea. […] The lobes were then subjected to precision slicing to obtain samples for culture using a microtome (Compresstome VF-300-0Z, Precisionary; Greenville, N.C.). Individual slices were distributed in a multiwell culture plate and cultured for 7 days under control (DMSO) and test compound conditions. The viability of the slices over the course of culturing was confirmed by WST-1 assay of mitochondrial activity.
During the culture period, slices in the control group were treated with DMSO and slices in the test group were treated with a DMSO solution of one of: the selective antibody αvβ6 inhibitor 3G9; the αvβ1-selective small molecule inhibitor; a combination of the selective antibody αvβ6 inhibitor 3G9 and the αvβ1-selective small molecule inhibitor; compound 5; and the small molecule ALK5 inhibitor. The selective αvβ1 and αvβ6 integrin inhibitors were analyzed at ≥their respective IC90 concentrations for inhibition of TGF-beta activation. […]

pSMAD2:SMAD2 ratio = test: pSMAD2/SMAD2 in BAL from healthy human subjects (Example B13); type: in vivo; details: Day 7, subjects with Cmax above 700 ng/mL, compared to placebo group, 20 or 40 mg daily
Experimental: In order to evaluate the change of pSMAD2 as a biomarker of TGF-β activity following administration of an integrin inhibitor, and to determine a therapeutically effective dosage and an effective blood plasma Cmax of the integrin inhibitor, healthy subjects were administered compound 5, a dual selective αvβ6/αvβ1-integrin inhibitor, and the corresponding Cmax levels and decrease in phosphorylation levels and were determined.
Healthy non-smoking adult males without history of lung disease were selected as subjects and were randomized into 4 cohorts. Broncoalevaolar lavage samples were obtained from all subjects 1 day prior to start of treatment. Cohorts 1 and 2 were administered 20 mg of a compound daily, wherein 3 subjects were administered the dual selective αvβ6/αvβ1-integrin inhibitor (compound 5) per every 1 subject receiving a placebo compound. Cohorts 3 and 4 were administered 40 mg of a compound daily, wherein 3 subjects were administered the dual selective αvβ6/αvβ1-integrin inhibitor (compound 5) per every 1 subject receiving a placebo compound. BAL samples and blood samples were taken from all subjects on Day −1 (baseline) and on Day 7 (end of treatment).

pSMAD2/SMAD2 ratio = test: Precision cut lung slices from human IPF lung tissue, pSMAD2/SMAD2 ratio; type: cell-based; details: PCLS from 3 IPF lung tissues, seven days, Compound 5 at 1.82 μM, FIG. 6F
Experimental: PCLS from 3 IPF lung tissues were cultured for seven days with Compound 5. […] The ratio of pSMAD2/SMAD2 is also graphed for the PCLS in the presence of 0.1% DMSO control, and an Alk5 inhibitor at 1 μM

[2] = test system: IPF-derived human lung fibroblasts; test: LAP adhesion binding assay, IPF-derived human lung fibroblasts; type: cell-based; details: adhesion to LAP, cell index (electrical impedance), FIG. 3B
Experimental: (§2) Two latency associated peptide (LAP) adhesion binding assays were devised using primary human lung cells, including normal (healthy) human bronchial epithelial cells and human lung fibroblasts (healthy and IPF).
Human lung fibroblasts derived from normal and IPF lung tissue are known to express αvβ1 integrin. The IPF-derived human lung fibroblasts were prepared for the assay by dissociation with trypsin/EDTA, and were seeded at 20,000 cells per well on 96 well plates (ACEA Bioscience E-plate View, Acea Biosciences; San Diego, Calif.) previously coated with 5 μg/ml of recombinant human LAP (R&D Systems; Minneapolis, Minn.) and blocked with 4% bovine serum albumin. Cell index (electrical impedance) was measured to assess cell attachment/spreading every 3 minutes for 24 hours at 37° C./5% CO2 using the xCELLigence RTCA MP Instrument (Acea Biosciences; San Diego, Calif.). […] In the assay, the IPF-derived human lung fibroblasts were separately incubated with: the αvβ1-selective small molecule inhibitor; the selective antibody αvβ6 inhibitor, 3G9; and compound 5.

[3] = test system: IPF-derived lung fibroblasts; test: cell adhesion in IPF-derived lung fibroblasts (FIG. 3B); type: cell-based
lung Col1a1 expression [4] = test: Precision cut lung slices, chronic bleomycin, versus pirfenidone and nintedanib (Example B10); type: cell-based, mice; details: 7 days culture, vs DMSO vehicle, FIG. 6A
Experimental: as §1, with “following” for “after”
During the culture period, slices in the control group were treated with DMSO and slices in the test group were treated with a DMSO solution of one of compound 5; nintedanib; pirfenidone; a combination of nintedanib and compound 5; a combination of pirfenidone and compound 5; or the small molecule ALK5 inhibitor. Compound 5 was […] effective to equal or exceed its respective IC50 values at αvβ6 and αvβ1. The small molecule ALK5 inhibitor was analyzed at […] its reported IC50 value. Nintendanib and pirfenidone were analyzed at concentrations 10× their reported therapeutic concentrations.

[5] = test system: normal (healthy) human bronchial epithelial cells; test: LAP adhesion binding assay, normal human bronchial epithelial cells; type: cell-based; details: cell index (electrical impedance), FIG. 3A
Experimental: as §2
Human bronchial epithelial cells are known to express αvβ6 integrin in culture. Human bronchial epithelial cells were prepared for the assay by dissociation with trypsin/EDTA and were then seeded at 20,000 cells per well on 96 well plates (ACEA Bioscience E-plate View, Acea Biosciences; San Diego, Calif.) previously coated with 5 μg/ml of recombinant human LAP (R&D Systems; Minneapolis, Minn.) and blocked with 4% bovine serum albumin. Cell index (electrical impedance) was measured to assess cell attachment/spreading every 3 minutes for 24 hours at 37° C./5% CO2 using the xCELLigence RTCA MP Instrument (Acea Biosciences; San Diego, Calif.).

## COCCN(CCCCc1ccc2c(n1)NCCC2)CC[C@H](Nc1ncnc2ccccc12)C(=O)O [Compound 5, (S)-4-((2-methoxyethyl) (4-(5,6,7,8-tetrahydro-1,8-naphthyridin-2-yl)butyl)amino)-2-(quinazolin-4-ylamino) butanoic acid]
Lung Col1a1 expression [1]
  lung Col1a1 expression: decreased lung Col1a1 expression substantially
pSMAD2:SMAD2 ratio
  reduction in pSMAD2:SMAD2 ratio: ≥ 50%
pSMAD2/SMAD2 ratio
  reduction of pSMAD2/SMAD2 ratio: approximately 50%
[2]
  cell adhesion in the IPF-derived lung fibroblasts: substantially inhibited
[3]
  cell adhesion in the IPF-derived lung fibroblasts: substantially inhibited
Lung Col1a1 expression [4]
  lung slice Col1a1 expression: substantial, statistically significant (p<0.01 vs vehicle) decrease
[5]
  normal bronchial epithelial cell adhesion to LAP: substantially inhibited
